Data: patent publication US20240300958A1, “COMPOUNDS AND THE USES AND PHARMACEUTICAL COMPOSITIONS THEREOF” (BEIJING YOUZHUJU NETWORK TECHNOLOGY CO. LTD., priority 2023, published 2024)
Like-named read-outs stand apart in the source and are kept apart here.

Experiments:
Test in all cases: Kinase inhibition profile (HTRF / ADP Glo kinase assay)
Format in all cases: biochemical
CHK2 = CHK2 (Homo sapiens (Human), UniProt O96017)
Description: (§1) HTRF kinase assay: 2×ATP and substrate solution as well as 2× kinase and metal solution were prepared with assay buffer. 25 nL of compound was transferred to 384-well assay plate by Echo 655. After centrifugation, 2.5 μL of 2× kinase/metal ion solution was added to the 384-well assay plate followed by incubation at 25° C. for 10 min. 2.5 μL of 2× substrate and ATP solution was added to the wells followed by incubation at 25° C. for 60 min. 2× XL665 and antibody solution was prepared with assay buffer. 5 μL of kinase detection reagent was added to the wells followed by incubation at 25° C. for 60 min. Fluorescence signals at 620 nm (Cryptate) and 665 nm (XL665) were read with a microtiter plate reader. ADP Glo kinase assay: 2×ATP and substrate solution as well as 2× kinase and metal solution were prepared with assay buffer. 20 nL of compound was transferred to 384-well assay plate by Echo 655. 2 μL of 2× kinase/metal ion solution was added followed by incubation at 25° C. for 10 min in the 384-well assay plate. 2 μL of 2× substrate and ATP solution was added to the wells followed by incubation at 25° C. for 60 min. 4 μL of ADP Glo reagent was added to the wells followed by incubation at 25° C. for 40 min. 8 μL of kinase test reagent was added to the wells followed by incubation at 25° C. for 40 min. The luminescence signals were recorded on a microtiter plate reader. Data analysis: the reaction control (0.5% DMSO) reading was set to 0% inhibition, and the background (10 μM positive control) reading was set to 100% inhibition, then the percent inhibition for each test solution was calculated and the results are shown in Table 2 and FIG. 3.

PAK2 = PAK2 (Homo sapiens (Human), UniProt Q13177)
Description: as §1

ITK = ITK (Homo sapiens (Human), UniProt Q08881)
Chain of ITK (Q08881 whole entry, species assumed): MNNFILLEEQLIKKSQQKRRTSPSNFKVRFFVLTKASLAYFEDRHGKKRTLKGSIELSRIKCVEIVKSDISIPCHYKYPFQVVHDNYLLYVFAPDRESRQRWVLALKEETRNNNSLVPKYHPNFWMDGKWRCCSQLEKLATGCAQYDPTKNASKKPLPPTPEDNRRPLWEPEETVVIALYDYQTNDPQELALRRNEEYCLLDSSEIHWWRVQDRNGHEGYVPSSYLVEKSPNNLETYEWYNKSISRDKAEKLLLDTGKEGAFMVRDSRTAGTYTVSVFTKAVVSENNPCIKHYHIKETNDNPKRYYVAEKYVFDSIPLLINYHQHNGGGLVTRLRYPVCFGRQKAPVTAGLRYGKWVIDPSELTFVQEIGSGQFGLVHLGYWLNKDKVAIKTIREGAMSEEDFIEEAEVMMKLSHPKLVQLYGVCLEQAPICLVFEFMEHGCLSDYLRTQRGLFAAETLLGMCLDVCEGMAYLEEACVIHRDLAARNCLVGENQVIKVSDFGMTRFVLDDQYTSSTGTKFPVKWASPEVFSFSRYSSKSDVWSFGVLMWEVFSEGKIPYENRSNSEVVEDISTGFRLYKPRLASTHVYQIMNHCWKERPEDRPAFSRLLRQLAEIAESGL
Description: as §1

GSK3β = GSK3β (Homo sapiens (Human), UniProt P49841)
Chain of GSK3β (P49841 whole entry, species assumed): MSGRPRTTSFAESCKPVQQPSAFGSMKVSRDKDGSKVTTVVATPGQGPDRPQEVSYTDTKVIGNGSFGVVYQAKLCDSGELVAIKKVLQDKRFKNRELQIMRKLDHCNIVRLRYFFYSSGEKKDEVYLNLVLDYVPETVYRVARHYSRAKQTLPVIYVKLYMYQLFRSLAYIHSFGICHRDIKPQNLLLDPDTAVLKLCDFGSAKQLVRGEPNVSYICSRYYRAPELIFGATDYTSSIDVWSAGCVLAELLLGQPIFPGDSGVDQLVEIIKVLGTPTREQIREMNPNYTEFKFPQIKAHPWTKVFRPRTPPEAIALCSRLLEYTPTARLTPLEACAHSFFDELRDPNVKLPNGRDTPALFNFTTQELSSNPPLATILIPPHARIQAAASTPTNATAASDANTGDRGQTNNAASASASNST
Description: as §1

PIM1 = PIM1 (Homo sapiens (Human), UniProt P11309)
Description: as §1

MAPKAPK2 = MAPKAPK2 (Homo sapiens (Human), UniProt P49137)
Chain of MAPKAPK2 (P49137 whole entry, species assumed): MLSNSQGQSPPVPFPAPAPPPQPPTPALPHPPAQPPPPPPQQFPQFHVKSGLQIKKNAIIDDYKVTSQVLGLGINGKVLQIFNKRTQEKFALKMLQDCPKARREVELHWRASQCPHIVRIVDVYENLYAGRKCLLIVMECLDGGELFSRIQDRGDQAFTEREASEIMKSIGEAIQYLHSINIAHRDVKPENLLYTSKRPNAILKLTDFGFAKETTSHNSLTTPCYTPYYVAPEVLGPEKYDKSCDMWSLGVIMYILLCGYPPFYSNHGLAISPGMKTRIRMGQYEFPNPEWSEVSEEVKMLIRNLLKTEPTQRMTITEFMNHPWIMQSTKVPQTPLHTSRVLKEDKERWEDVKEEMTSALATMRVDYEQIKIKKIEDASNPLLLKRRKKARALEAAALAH
Description: as §1

Erk2 = Erk2 (Homo sapiens (Human), UniProt P28482)
Description: as §1

CK1α = CK1α (Homo sapiens (Human), UniProt P48729)
Chain of CK1α (P48729 whole entry): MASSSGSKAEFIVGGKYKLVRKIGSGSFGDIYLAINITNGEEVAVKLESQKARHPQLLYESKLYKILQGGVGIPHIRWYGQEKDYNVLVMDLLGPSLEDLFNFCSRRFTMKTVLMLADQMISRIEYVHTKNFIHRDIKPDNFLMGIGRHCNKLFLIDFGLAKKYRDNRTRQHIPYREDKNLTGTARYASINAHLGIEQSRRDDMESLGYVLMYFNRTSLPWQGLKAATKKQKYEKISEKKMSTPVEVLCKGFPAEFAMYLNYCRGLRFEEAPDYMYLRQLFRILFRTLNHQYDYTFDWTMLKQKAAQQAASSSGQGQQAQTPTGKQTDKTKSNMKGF
Description: as §1

DYRK1B = DYRK1B (Homo sapiens (Human), UniProt Q9Y463)
Chain of DYRK1B (Q9Y463 whole entry, species assumed): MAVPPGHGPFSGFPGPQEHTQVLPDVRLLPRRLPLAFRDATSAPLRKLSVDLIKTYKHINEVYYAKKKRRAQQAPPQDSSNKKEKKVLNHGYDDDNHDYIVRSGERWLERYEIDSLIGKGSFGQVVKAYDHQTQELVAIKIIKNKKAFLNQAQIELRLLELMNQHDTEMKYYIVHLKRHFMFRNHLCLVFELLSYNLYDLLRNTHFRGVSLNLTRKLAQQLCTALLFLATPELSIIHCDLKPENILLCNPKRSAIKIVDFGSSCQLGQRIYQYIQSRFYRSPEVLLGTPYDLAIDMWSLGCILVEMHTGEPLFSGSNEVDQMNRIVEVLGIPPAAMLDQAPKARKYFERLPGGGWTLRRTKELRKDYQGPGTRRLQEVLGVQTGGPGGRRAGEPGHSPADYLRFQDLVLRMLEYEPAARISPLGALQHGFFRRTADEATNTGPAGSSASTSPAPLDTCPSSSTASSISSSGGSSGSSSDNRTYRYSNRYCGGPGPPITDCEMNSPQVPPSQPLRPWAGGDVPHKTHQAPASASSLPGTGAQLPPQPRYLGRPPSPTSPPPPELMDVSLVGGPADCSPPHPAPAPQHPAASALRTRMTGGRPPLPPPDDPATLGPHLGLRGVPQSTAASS
Description: as §1

HGK = HGK (Homo sapiens (Human), UniProt O95819)
Description: as §1

AurB = AurB (Homo sapiens (Human), UniProt Q96GD4)
Description: as §1

IGF1R = IGF1R (Homo sapiens (Human), UniProt P08069)
Description: as §1

AKT1 = AKT1 (Homo sapiens (Human), UniProt P31749)
Description: as §1

CDK2/CycE1 = CDK2/CycE1 (Homo sapiens (Human), UniProt P24941)
Description: as §1

MET = MET (Homo sapiens (Human), UniProt P08581)
Description: as §1

CDK18/CyclinY = CDK18/CyclinY (Homo sapiens (Human), UniProt Q07002)
Description: as §1

PKCα = PKCα (Homo sapiens (Human), UniProt P17252)
Description: as §1

TSSK1 = TSSK1 (Homo sapiens (Human), UniProt Q9BXA7)
Description: as §1

HIPK1 = HIPK1 (Homo sapiens (Human), UniProt Q86Z02)
Chain of HIPK1 (Q86Z02 whole entry, species assumed): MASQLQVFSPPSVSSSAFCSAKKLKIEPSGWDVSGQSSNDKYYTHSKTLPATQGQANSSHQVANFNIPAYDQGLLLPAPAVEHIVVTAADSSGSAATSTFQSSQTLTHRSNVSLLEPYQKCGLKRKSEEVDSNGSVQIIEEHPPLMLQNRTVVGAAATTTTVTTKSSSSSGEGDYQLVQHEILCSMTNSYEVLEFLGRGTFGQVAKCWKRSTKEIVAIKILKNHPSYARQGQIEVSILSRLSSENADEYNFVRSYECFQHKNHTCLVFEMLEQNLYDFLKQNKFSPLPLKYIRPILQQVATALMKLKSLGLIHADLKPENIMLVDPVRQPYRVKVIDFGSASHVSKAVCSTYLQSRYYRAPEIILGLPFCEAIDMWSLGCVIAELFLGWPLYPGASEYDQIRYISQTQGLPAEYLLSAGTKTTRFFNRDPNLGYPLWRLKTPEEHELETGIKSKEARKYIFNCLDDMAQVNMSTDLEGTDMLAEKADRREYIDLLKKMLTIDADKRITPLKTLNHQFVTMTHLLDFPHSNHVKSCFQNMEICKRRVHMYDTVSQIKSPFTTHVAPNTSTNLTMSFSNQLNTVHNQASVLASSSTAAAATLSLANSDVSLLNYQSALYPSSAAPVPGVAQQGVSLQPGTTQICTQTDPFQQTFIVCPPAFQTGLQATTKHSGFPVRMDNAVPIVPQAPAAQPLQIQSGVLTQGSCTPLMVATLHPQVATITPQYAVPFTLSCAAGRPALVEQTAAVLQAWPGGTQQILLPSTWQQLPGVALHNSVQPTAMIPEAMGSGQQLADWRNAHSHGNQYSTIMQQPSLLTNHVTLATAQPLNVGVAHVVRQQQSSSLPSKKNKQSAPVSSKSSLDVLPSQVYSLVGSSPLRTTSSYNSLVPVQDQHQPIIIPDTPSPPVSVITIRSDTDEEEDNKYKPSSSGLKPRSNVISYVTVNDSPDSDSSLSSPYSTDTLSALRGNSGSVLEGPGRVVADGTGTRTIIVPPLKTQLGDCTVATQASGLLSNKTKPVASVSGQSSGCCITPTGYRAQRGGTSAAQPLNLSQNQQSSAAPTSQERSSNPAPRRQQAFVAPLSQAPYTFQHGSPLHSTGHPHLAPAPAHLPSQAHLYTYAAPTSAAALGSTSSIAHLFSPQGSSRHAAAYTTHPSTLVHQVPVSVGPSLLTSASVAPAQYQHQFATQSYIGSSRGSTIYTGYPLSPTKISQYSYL
Description: as §1

DAPK1 = DAPK1 (Homo sapiens (Human), UniProt P53355)
Description: as §1

BRAF = BRAF (Homo sapiens (Human), UniProt P15056)
Description: as §1

FGFR1 = FGFR1 (Homo sapiens (Human), UniProt P11362)
Chain of FGFR1 (P11362 22-822, species assumed): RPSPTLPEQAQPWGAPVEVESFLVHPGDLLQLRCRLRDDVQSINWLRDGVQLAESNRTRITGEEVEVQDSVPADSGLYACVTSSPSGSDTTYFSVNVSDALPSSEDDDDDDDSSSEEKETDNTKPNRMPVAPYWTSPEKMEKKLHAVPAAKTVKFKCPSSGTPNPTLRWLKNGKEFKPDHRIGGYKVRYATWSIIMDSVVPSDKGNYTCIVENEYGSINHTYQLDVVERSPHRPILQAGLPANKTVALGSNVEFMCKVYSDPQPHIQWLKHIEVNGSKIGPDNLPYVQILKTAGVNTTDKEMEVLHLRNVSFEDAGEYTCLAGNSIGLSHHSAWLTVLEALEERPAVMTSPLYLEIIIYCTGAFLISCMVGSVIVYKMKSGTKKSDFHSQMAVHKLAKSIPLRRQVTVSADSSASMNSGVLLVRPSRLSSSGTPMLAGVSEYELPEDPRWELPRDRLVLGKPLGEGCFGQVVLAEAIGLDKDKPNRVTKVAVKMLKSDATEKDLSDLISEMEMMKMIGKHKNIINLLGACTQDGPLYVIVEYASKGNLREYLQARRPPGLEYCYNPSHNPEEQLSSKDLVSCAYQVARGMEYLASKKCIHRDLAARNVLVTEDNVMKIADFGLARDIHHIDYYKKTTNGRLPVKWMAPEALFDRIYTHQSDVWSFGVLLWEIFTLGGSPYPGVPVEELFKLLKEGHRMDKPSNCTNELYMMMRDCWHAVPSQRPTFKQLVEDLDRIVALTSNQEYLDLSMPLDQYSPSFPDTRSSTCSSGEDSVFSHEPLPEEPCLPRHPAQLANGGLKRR
Description: as §1

[1] = 1 uM Compound C1, read-out: % Inhibition (First measurement)
[2] = 1 uM Compound C1, read-out: % Inhibition (Second measurement)
[3] = 1 uM Compound C1, read-out: Average inhibition (%)

Chain of CHK2 (O96017 whole entry, species assumed): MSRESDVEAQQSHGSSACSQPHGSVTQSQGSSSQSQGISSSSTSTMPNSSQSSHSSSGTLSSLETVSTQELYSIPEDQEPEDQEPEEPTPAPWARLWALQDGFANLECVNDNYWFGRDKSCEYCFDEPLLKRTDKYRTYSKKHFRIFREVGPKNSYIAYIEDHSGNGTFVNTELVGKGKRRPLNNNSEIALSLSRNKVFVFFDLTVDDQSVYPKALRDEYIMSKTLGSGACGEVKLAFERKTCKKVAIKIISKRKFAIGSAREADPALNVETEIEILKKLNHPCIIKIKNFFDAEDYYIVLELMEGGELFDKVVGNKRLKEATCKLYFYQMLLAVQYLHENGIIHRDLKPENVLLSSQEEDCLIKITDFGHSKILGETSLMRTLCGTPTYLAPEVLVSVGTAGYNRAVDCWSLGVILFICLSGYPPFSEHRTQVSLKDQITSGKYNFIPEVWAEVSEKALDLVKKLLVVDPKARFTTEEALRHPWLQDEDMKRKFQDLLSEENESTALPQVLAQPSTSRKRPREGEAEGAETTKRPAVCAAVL

SMILES: Cc1ccc(C(=O)Nc2ccccn2)cc1C#Cc1cnc2cc(C3=CCCCC3)cnn12 [Compound C1, 3-{2-[7-(cyclohex-1-en-1-yl)imidazo[1,2-b]pyridazin-3-yl]ethynyl}-4-methyl-N-(pyridin-2-yl)benzamide]
- inhibition at 1 µM (CHK2; [1]): 0.35%
- inhibition at 1 µM (CHK2; [2]): 7.34%
- inhibition at 1 µM (CHK2; [3]): 3.85%
- inhibition at 1 µM (PAK2; [1]): 2.23%
- inhibition at 1 µM (PAK2; [2]): 12.1%
- inhibition at 1 µM (PAK2; [3]): 7.17%
- inhibition at 1 µM (ITK; [1]): -3.82%
- inhibition at 1 µM (ITK; [2]): -19.2%
- inhibition at 1 µM (ITK; [3]): -11.5%
- inhibition at 1 µM (GSK3β; [1]): 0.83%
- inhibition at 1 µM (GSK3β; [2]): 7.83%
- inhibition at 1 µM (GSK3β; [3]): 4.33%
- inhibition at 1 µM (PIM1; [1]): -3.17%
- inhibition at 1 µM (PIM1; [2]): -4.27%
- inhibition at 1 µM (PIM1; [3]): -3.72%
- inhibition at 1 µM (MAPKAPK2; [1]): 15.3%
- inhibition at 1 µM (MAPKAPK2; [2]): -3.28%
- inhibition at 1 µM (MAPKAPK2; [3]): 6.02%
- inhibition at 1 µM (Erk2; [1]): 20.2%
- inhibition at 1 µM (Erk2; [2]): 19.3%
- inhibition at 1 µM (Erk2; [3]): 19.8%
- inhibition at 1 µM (CK1α; [1]): 5.8%
- inhibition at 1 µM (CK1α; [2]): -5.89%
- inhibition at 1 µM (CK1α; [3]): -0.04%
- inhibition at 1 µM (DYRK1B; [1]): 4.14%
- inhibition at 1 µM (DYRK1B; [2]): 9.03%
- inhibition at 1 µM (DYRK1B; [3]): 6.58%
- inhibition at 1 µM (HGK; [1]): 18.5%
- inhibition at 1 µM (HGK; [2]): 17%
- inhibition at 1 µM (HGK; [3]): 17.7%
- inhibition at 1 µM (AurB; [1]): 19.7%
- inhibition at 1 µM (AurB; [2]): 13.3%
- inhibition at 1 µM (AurB; [3]): 16.5%
- inhibition at 1 µM (IGF1R; [1]): -0.05%
- inhibition at 1 µM (IGF1R; [2]): -2.29%
- inhibition at 1 µM (IGF1R; [3]): -1.17%
- inhibition at 1 µM (AKT1; [1]): 7.17%
- inhibition at 1 µM (AKT1; [2]): 4.56%
- inhibition at 1 µM (AKT1; [3]): 5.87%
- inhibition at 1 µM (CDK2/CycE1; [1]): 0.53%
- inhibition at 1 µM (CDK2/CycE1; [2]): 12.6%
- inhibition at 1 µM (CDK2/CycE1; [3]): 6.56%
- inhibition at 1 µM (MET; [1]): -11.9%
- inhibition at 1 µM (MET; [2]): -15.8%
- inhibition at 1 µM (MET; [3]): -13.9%
- inhibition at 1 µM (CDK18/CyclinY; [1]): 18%
- inhibition at 1 µM (CDK18/CyclinY; [2]): 2.55%
- inhibition at 1 µM (CDK18/CyclinY; [3]): 10.3%
- inhibition at 1 µM (PKCα; [1]): -1.67%
- inhibition at 1 µM (PKCα; [2]): -17.2%
- inhibition at 1 µM (PKCα; [3]): -9.44%
- inhibition at 1 µM (TSSK1; [1]): -15.1%
- inhibition at 1 µM (TSSK1; [2]): -3.43%
- inhibition at 1 µM (TSSK1; [3]): -9.28%
- inhibition at 1 µM (HIPK1; [1]): 6.91%
- inhibition at 1 µM (HIPK1; [2]): 4.17%
- inhibition at 1 µM (HIPK1; [3]): 5.54%
- inhibition at 1 µM (DAPK1; [1]): -14.5%
- inhibition at 1 µM (DAPK1; [2]): -5.25%
- inhibition at 1 µM (DAPK1; [3]): -9.87%
- inhibition at 1 µM (BRAF; [1]): -6.73%
- inhibition at 1 µM (BRAF; [2]): -23.9%
- inhibition at 1 µM (BRAF; [3]): -15.3%
- inhibition at 1 µM (FGFR1; [1]): 0.18%
- inhibition at 1 µM (FGFR1; [2]): -18.2%
- inhibition at 1 µM (FGFR1; [3]): -9.02%
